This is an account of results in patent publication US12384774B2, “Polymorph of CDK9 inhibitor and preparation method for polymorph and use thereof” (GenFleet Therapeutics (Shanghai) Inc., priority 2019, dated 2025).

Converted amounts (≈) assume the structure as drawn. Structures can show the parent of a compound that is named as a salt. Where two headings read alike, the source gives them in different places.

A short description of series [1]: Solubility test in PBS buffers of different pH, water and normal saline at room temperature. Particulars: for solubility: thermodynamic from solid. It counts as physicochemical. The method, then: Weigh about 50 mg of the crystal form 1 of the maleate of the compound of formula (I) prepared in Example 2, which was added into different bottles. Then PBS buffers with different pH values were prepared. Each of them was added in batches with a small amount into each of the above bottles at room temperature till the crystal form in each bottle was just dissolved. The total amount of the solvent was recorded and the solubility was calculated.
The amorphous form of the free base of the compound of formula (I) was subjected to the same solubility study as above-mentioned.

Series [2] concerns Acute myeloid leukemia cells MV-4-11. Put plainly: Cell proliferation inhibition, CellTiter-Glo. In kind it is cell-based. Particulars: MV-4-11 cells. As to the method: Weigh 5.61 mg of the crystal form 1 of the maleate of the compound of formula (I) prepared in Example 2, which was dissolved it in 74.7 μL of DMSO.
Configure 1000× compound storage plate (or called 1000× storage medicine plate): the 100 mM compound storage solution was diluted with DMSO. The starting concentration was 10 mM and 9 concentration gradients (th concentration of the storage solution was 10 mM, 3 mM, 1 mM, 0.3 mM, 0.1 mM, 0.03 mM, 0.01 mM, 0.001 mM and 0.0001 mM respectively) were set. The compound storage plate was sealed with a sealing tape, and stored in a refrigerator at −20° C. for later use.
Acute myeloid leukemia cells MV-4-11 (purchased from ATCC) were selected and seaded into a 96-well plate (140 μL per well) at a density of 5000/well and cultured overnight in a incubator with 37° C., 5% CO2.
1000×storage medicine plates were taken out and melt at room temperature while avoiding light. Then prepare 15× intermediate medicine plates (78.8 μL of medium and 1.2 μL of medicine-containing DMSO storage solution), which were mixed well. 10 μL of the medicine-contained medium (15×) was added into the 96-well cell plates (the final concentration was 10 μM, 3 μM, 1 μM, 0.3 μM, 0.1 μM, 0.03 μM, 0.01 μM, 0.001 μM and 0.0001 μM, respectively, and the final concentration of DMSO was […]), which were gently patted to well-mixed, then put it in a incubator with 37° C., 5% CO2, and continued to incubate for 24 hours.
Then the CellTiter-Glo method was used to detect vitality of the cell under the conditions of each drug concentration, and the rate of cell proliferation inhibition under the corresponding conditions was calculated.

A short description of series [3]: Hygroscopicity test by dynamic moisture adsorption instrument (DVS). It counts as physicochemical. Particulars: for weight increasement due to moisture absorption: 25° C. The method, then:
Experimental method: this test was carried out by a dynamic moisture adsorption instrument. Weigh 10 mg of a solid sample, which was placed on a balance. The humidity in the sample room was controlled through the program. The sample was placed under the same temperature and different humidity conditions for 7 days, then the quality change of the tested sample was measured with relative humidity. Detection procedure: the humidity change was 0%-95%-0%; the test temperature was 25° C.
The amorphous form of the free base of the compound of formula (I) was subjected to the same hygroscopicity study as above-mentioned. […] When the relative humidity is 95%, the weight increasement due to moisture absorption can reach 9.5%, and the sample after moisture absorption is not easy to desorb.

Series [4] can be described thus: Stability test in a 60° C. drying oven (impurity, content, XRPD). In kind it is physicochemical. Particulars: for Content % / Total impurity %: 60° C. drying oven. As to the method: The crystal form A of the fumarate of the compound of formula (I) prepared in Example 9 and the crystal form 1 of the maleate of the compound of formula (I) prepared in Example 2 were placed in a 60° C. drying oven for different days (0 days, 7 days, 21 days). Samples were collected and detected to investigate the stability of the crystal forms.
The amorphous form of the free base of the compound of formula (I) was subjected to the same stability study as above-mentioned.
The crystal form 2 of the maleate of the compound of formula (I) prepared in Example 3 was placed in a 60° C. drying oven, and samples were taken and tested for different days (0 days, 7 days, 14 days and 30 days) to investigate the stability of the crystal form.

Experiment in series [5]: as above
It counts as physicochemical. The following applies: for Content % / Total impurity %: 60° C. drying oven, 21 days; for change in content or in the characteristic peaks of the XRPD pattern: after 21 days at high temperature (60° C.).

A short description of series [6]: Hygroscopicity observation on the hydrochloride (Comparative Example 2). It counts as physicochemical. The following applies: solid in crystal form obtained with hydrochloric acid. The method, then: Similarly, by using the method described in Example 1 or Example 9, the according salt of the compound of formula (I) were prepared with the hydrochloric acid instead of the maleic acid or the fumaric acid.

Where [7] appears, read: amorphous form, 60° C., 7th and 14th day.

On to `COC[C@@H](C)N[C@H]1CC[C@H](Nc2cc(-c3csc(NCC4(C#N)CCOCC4)n3)c(Cl)cn2)CC1` [listing 1 of 2 here], for which the solubility in series [1] (PBS buffer, pH 6, aqueous buffer, PBS 6.0, room temperature, read-out: Solubility (S, mg/mL)) is 41 mg/mL (≈ 79 mM); in series [1] (PBS buffers of different pH, water and normal saline, aqueous buffer, PBS 6.0-7.5, water, normal saline, read-out: solubility in each of the above-mentioned solvents (summary)), 30 to 60 mg/mL (≈ 57.8 to 116 mM); in series [1] (normal saline, saline or isotonic, normal saline, room temperature, read-out: Solubility (S, mg/mL)) it was 50 mg/mL (≈ 96.3 mM). Further, the IC50 in series [2] (Homo sapiens, MV4-11, 24 hours incubation, CellTiter-Glo, read-out: absolute half inhibitory concentration (ABsIC50)) stood at 32 nM.
Consider `COC[C@@H](C)N[C@H]1CC[C@H](Nc2cc(-c3csc(NCC4(C#N)CCOCC4)n3)c(Cl)cn2)CC1` [crystal form A of the fumarate of the compound of formula (I], for which, in series [3] (environment humidity RH=60%), the “hygroscopicity (in words)” value is reported as “weak” and the “weight increasement due to moisture absorption” value (“weight increasement due” below) was “about 1%”. In series [4] (0 day), this molecule had a Content % of 99.38% and a Total impurity % of 0.62%. Besides, in series [4] (7 days), the Content % was determined as 99.31% and the Total impurity % is on record as 0.69%. Besides, in series [5], the Content % is on record as 99.22%, the Total impurity % is reported as 0.78% and the “change in content or in the characteristic peaks of the XRPD pattern” value is given as “basically no change”.
For `COC[C@@H](C)N[C@H]1CC[C@H](Nc2cc(-c3csc(NCC4(C#N)CCOCC4)n3)c(Cl)cn2)CC1` [free base of the compound of formula (I), 4-(((4-(5-chloro-2-(((1R,4r)-4-(((R)-1-methoxypropyl-2-yl)amino)cyclohexyl)amino)pyridin-4-yl)thiazol-2-yl)amino)methyl)tetrahydro-2H-pyran-4-carbonitrile], in series [1] (PBS buffer, pH 7.2, aqueous buffer, PBS pH 7.2, room temperature, read-out: Solubility (S, mg/mL)), the solubility was around 10.1 mg/mL. In addition, the “Solubility (S, mg/mL)” value in series [1] (PBS pH 6.5, room temperature) was “about 15.10 mg/mL”; in series [1] (PBS pH 7.0, room temperature) it was “about 12.5 mg/mL”; in series [1] (PBS pH 7.5, room temperature), “about 0.44 mg/mL”; in series [1] (water, room temperature), “about 0.1 mg/mL”. For the same molecule, the “solubility compared with crystal form 1 of the maleate (in words)” value in series [1] (same experiment conditions, amorphous free base) is recorded as “significant lower solubility”. Besides, the “hygroscopicity (in words)” value in series [3] (environment humidity higher than 60%, amorphous form) is recorded as “quite strong hygroscopicity”. Moreover, in series [3] (relative humidity 95%), the “weight increasement due” value was determined as 9.5%. Also, the Content % in series [4] (0 day) came to 99.50%; in series [4] (7 days) it was 98.42%; in series [4] (14 days), 97.44%. Moreover, the figures for the Total impurity % in series [4] (0 day), in series [4] (7 days) and in series [4] (14 days) were 0.50%, 1.58% and 2.56%, respectively. The “change in the character (appearance)” value in series [4] (setting [7]) is given as “changes from a yellow solid to a hard gelatinous substance”. The “stability (in words)” value in series [5] (setting [7]) was “poor stability”.
With `COC[C@@H](C)N[C@H]1CC[C@H](Nc2cc(-c3csc(NCC4(C#N)CCOCC4)n3)c(Cl)cn2)CC1` [crystal form 1 of the maleate of the compound of formula (I)], the “Solubility (S, mg/mL)” value in series [1] (PBS pH 6.5, room temperature) amounted to 45 mg/mL; in series [1] (PBS pH 7.0, room temperature), 57 mg/mL; in series [1] (PBS pH 7.5, room temperature) it was 62 mg/mL; in series [1] (water, room temperature), 31 mg/mL. Besides, the “hygroscopicity (in words)” value in series [3] (environment humidity RH=60%) is “weak”. Also, the “weight increasement due” value in series [3] (environment humidity RH=60%) is “about 1%”. Besides, the “effect on cell growth” value in series [2] (concentration range 0.0001 μM to 0.01 μM) is listed as “no significant changes in cell growth”; in series [2] (concentration range 0.03 μM to 10 μM), “significant inhibitory effect”. The Content % was 99.91% in series [4] (0 day), 99.88% in series [4] (7 days) and 99.86% in series [5]. Moreover, the Total impurity % in series [4] (0 day) was 0.09%; in series [4] (7 days), 0.12%; in series [5], 0.14%. Besides, the “change in content or in the characteristic peaks of the XRPD pattern” value in series [5] was “basically no change”.
Consider `COC[C@@H](C)N[C@H]1CC[C@H](Nc2cc(-c3csc(NCC4(C#N)CCOCC4)n3)c(Cl)cn2)CC1` [listing 2 of 2 here], for which, in series [6], the “hygroscopicity (in words)” value is listed as “very hygroscopic”.
For the molecule `COC[C@@H](C)N[C@H]1CC[C@H](Nc2cc(-c3csc(NCC4(C#N)CCOCC4)n3)c(Cl)cn2)CC1` [crystal form 2], the Content % in series [4] (0 day) turned out to be 99.13%; in series [4] (7 days) it was 98.56%; in series [4] (14 days), 97.73%. The Total impurity % was 0.87% in series [4] (0 day), 1.44% in series [4] (7 days) and 2.27% in series [4] (14 days). Besides, the “characteristic peaks of the XRPD pattern” value in series [5] (after 14 days at high temperature (60° C.)) is on record as “basically unchanged”.
